Reference: patent publication US10584134B2, “Use of physiological cooling active ingredients, and agents containing such active ingredients” (SYMRISE AG, priority 2009, dated 2020)
Where a name gives a salt, the structure may show the parent alone.

Legend:
[1] = cited from earlier work; for cooling action: J. Soc. Cosmet. Chem. 1978, 29, 185-200, study of approximately 1200 compounds
human TRPM8 receptor = human TRPM8 receptor (Homo sapiens (Human), UniProt Q7Z2W7); assay: Assay on TRPM8 modulators (Ca2+-sensitive dye, HEK293-TRPM8 test cells, EC50 determination); assay type: cell-based; conditions: assay according to reference example 3
Excerpt: As a test cell system the human TRPM8 DNA (see plasmid pInd-M8 above) was used to prepare a stable transfixed HEK293 cell line. Here preference is for HEK293 which via the plasmid introduced offers the possibility of induction of the TRPM8 expression by means of tetracycline.
The agonisation or antagonisation of the receptor can be quantified by means of a Ca^2+-sensitive dye (e.g. FURA, Fluo-4, etc.).
To begin with, in a manner known per se, in cell culture flasks a fresh culture of transformed HEK cells is prepared. The HEK293-TRPM8 test cells are removed using trypsin from the cell culture flasks and 40 000 cells/well are sown with 100 μl medium in 96-well plates (Greiner #655948 Poly-D-lysine coated). In order to induce the TRPM8 receptor the growth medium tetracycline is mixed in (DMEM/HG, 10% FCS tetracycline-free, 4 mM L-glutamine, 15 μg/ml blasticidin, 100 μg/ml hygromycin B, 1 μg/ml tetracycline). The next day the cells are charged with Fluo-4Am dye and the test is performed.
The test substances are used in triplicate in concentrations of between 0.1 and 200 μm in the assay. Normally the compounds are kept ready in DMSO solutions and diluted for the assay to a maximum DMSO concentration of 2%.

[2] = test system: panel of sensorially trained experts; assay: Sensorial assessment of toothpastes containing the flavourings (Examples S-1 to S-4); assay type: in vivo, human; conditions: flavouring 1.2 wt. % in toothpaste base, usage conditions
Description: The flavourings obtained in this way were worked into a standard silica toothpaste base in a concentration of 1.2 wt. %. The toothpastes were tested by a panel of sensorially trained experts under usage conditions. The sensorial assessments were as follows: very pleasant, rich and voluminous minty freshness with a comparatively fast onset, strong and marked and comparatively very long-lasting cooling fresh impression, wherein it was noticeable that the sensation of coldness was rapidly perceptible in the whole of the oral cavity. Additionally the flavour was assessed as being softer and more neutral and less sharp than without the compounds according to the invention.
The flavourings in a concentration of 1.2% were worked into a toothpaste base comprising an amount of 65% of sodium bicarbonate. The toothpastes were tested under usage conditions and assessed by a panel of sensorially trained experts. In each case a pleasant, powerful spearmint flavour in combination with a voluminous and long-lasting fresh taste was noted.
The flavourings obtained in this way were in each case worked into a standard silica toothpaste base in a concentration of 1.2 wt. %. The toothpastes were tested by a panel of sensorially trained experts under usage conditions. […]

Sequence of human TRPM8 receptor (Q7Z2W7 whole entry): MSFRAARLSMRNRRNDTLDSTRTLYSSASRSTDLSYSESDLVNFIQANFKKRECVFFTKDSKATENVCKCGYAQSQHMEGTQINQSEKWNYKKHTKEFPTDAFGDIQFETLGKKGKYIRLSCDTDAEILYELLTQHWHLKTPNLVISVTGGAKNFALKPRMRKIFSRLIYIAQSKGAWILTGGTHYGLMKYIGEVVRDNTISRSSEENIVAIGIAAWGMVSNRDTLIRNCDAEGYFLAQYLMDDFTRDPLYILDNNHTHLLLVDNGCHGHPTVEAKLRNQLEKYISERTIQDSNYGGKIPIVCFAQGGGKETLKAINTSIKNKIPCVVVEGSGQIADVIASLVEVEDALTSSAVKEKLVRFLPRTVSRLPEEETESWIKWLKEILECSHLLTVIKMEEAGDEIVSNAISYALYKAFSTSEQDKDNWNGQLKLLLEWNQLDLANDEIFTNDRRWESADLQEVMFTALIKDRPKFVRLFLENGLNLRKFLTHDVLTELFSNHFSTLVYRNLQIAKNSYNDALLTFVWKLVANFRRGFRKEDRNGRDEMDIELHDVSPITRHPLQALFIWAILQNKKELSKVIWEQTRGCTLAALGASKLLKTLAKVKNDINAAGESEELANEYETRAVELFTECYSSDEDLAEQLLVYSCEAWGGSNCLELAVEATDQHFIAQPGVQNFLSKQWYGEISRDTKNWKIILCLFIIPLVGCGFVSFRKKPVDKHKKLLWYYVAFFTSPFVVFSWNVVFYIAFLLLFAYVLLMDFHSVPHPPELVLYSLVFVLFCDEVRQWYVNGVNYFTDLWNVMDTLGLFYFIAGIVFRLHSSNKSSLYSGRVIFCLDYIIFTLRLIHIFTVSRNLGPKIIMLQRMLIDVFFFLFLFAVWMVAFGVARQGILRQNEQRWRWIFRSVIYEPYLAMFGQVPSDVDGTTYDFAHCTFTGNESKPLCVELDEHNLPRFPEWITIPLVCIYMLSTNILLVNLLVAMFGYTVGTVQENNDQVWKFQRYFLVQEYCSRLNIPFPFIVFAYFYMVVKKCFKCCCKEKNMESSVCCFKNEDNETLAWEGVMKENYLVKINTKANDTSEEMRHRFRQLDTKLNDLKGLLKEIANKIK

EC50 (human TRPM8 receptor; Table C, structure type 3) [µM] | SMILES | further results
– | CCOC(=O)CNC(=O)C1CC(C)CCC1C(C)C (centres unmarked) [WS5, N-[[5-methyl-2-(1-methylethyl)cyclohexyl]carbonyl]glycine ethyl ester] | cooling action [1]: most strongly cooling active ingredients; irritancy ([1]; US 2005/0222256): strongly irritant
– | CC1(C)CC(=O)C2=C(C1)N1CCc3ccccc3C1CC21SCCCS1 (centres unmarked) [Compound 1-5, 2,3,4,5,6,10b,11,12-octahydro-3,3-dimethyl-spiro[4b-azachrysene-12,2′-[1,3]dithian]-1-one] | EC50 (human TRPM8 receptor; Table A, structure type 1): 1.4 µM
1.3 | COc1ccc(/C=C/C(=O)N(c2ccccc2)C(C)C)cc1 [Compound 3-22] | –
0.3 | Cc1cccc(/C=C/C(=O)N(c2ccccn2)C2CCCCC2)c1 [Compound 3-31, (E)-N-cyclohexyl-N-pyridin-2-yl-3-m-tolyl-acrylamide] | –
1.8 | Cc1ccc(/C=C/C(=O)N(c2ccccc2)C(C)C)cc1 [Compound 3-36] | –
– | CC1(C)CC(=O)C2=C(C1)N1CCc3ccccc3C1CC21SCCS1 (centres unmarked) [Compound 1-2, 2,3,4,5,6,10b,11,12-octahydro-3,3-dimethyl-spiro[4b-azachrysene-12,2′-[1,3]dithiolan]-1-one] | EC50 (human TRPM8 receptor; Table A, structure type 1): 0.6 µM
– | COCC(C)Nc1nc(-c2ccccn2)ncc1OC (centres unmarked) [Compound 2-10] | EC50 (human TRPM8 receptor; Table B, structure type 2): 2.2 µM
1.1 | COc1ccc(/C=C/C(=O)N(c2ccccc2)c2ccccc2)cc1 [Compound 3-20, 4-methoxycinammic acid-N,N-diphenylamide] | –
12.3 | CCN(CC)C(=O)/C=C/c1ccc2c(c1)OCO2 [Compound 3-15] | –
0.1 | COc1ccc(/C=C/C(=O)N(C2CCCCC2)C2CCCCC2)cc1 [Compound 3-18, (E)-N,N-dicyclohexyl-3-(4-methoxy-phenyl)-acrylamide] | –
2.2 | COc1ccc(/C=C/C(=O)N(Cc2ccccc2)c2ccccn2)cc1 [Compound 3-24] | –
3.3 | COc1ccc(CCC(=O)N(c2ccccn2)C2CCCCC2)cc1 [Compound 3-42] | –
4 | COc1ccc(OCC(=O)N(c2ccccn2)C2CCCCC2)cc1 [Compound 3-45] | –
1.5 | CCN(Cc1ccccc1)C(=O)/C=C/c1ccc2c(c1)OCO2 [Compound 3-14] | –
– | COc1cnc(-c2ccccn2)nc1NC(C)C [Compound 2-17, Isopropyl-(5-methoxy-2-pyridin-2-yl-pyrimidin-4-yl)-ammonium malate] | EC50 (human TRPM8 receptor; Table B, structure type 2): 0.4 µM
1.2 | O=C(/C=C/c1ccc2c(c1)OCO2)N(Cc1ccccc1)c1ccccc1 [Compound 3-10] | –
0.6 | O=C(/C=C/c1ccccc1)N(c1ccccc1)C1CCCCC1 [Compound 3-26, (E)-N-cyclohexyl-3,N-diphenyl-acrylamide] | –
0.7 | COc1cccc(/C=C/C(=O)N(c2ccccn2)C2CCCCC2)c1OC [Compound 3-38] | –
– | COc1cnc(-c2ccccn2)nc1NC(C)C [Compound 2-22] | EC50 (human TRPM8 receptor; Table B, structure type 2): 0.7 µM
3 | COc1cccc(/C=C/C(=O)N(c2ccccn2)C2CCCCC2)c1 [Compound 3-37] | –
3.2 | COc1ccc(/C=C/C(=O)N(Cc2ccccc2)c2ccccc2)cc1 [Compound 3-23] | –
– | COc1cnc(-c2ccccc2)nc1N1CCOCC1 [Compound 2-13] | EC50 (human TRPM8 receptor; Table B, structure type 2): 11.7 µM
0.4 | COc1ccc(/C=C/C(=O)N(c2ccccn2)C2CCCCC2)cc1 [Compound 3-17, 4-methoxycinammic acid-N-cyclohexyl-N-2-pyridylamide] | –
2.4 | O=C(/C=C/c1ccccc1)N(Cc1ccccc1)c1ccccc1 [Compound 3-28] | –

EC50 (human TRPM8 receptor; Table C, structure type 3) [µM] | SMILES | further results
3 | O=C(COc1ccccc1)N(c1nccs1)C1CCCCC1 [Compound 3-46] | –
0.8 | CC(C1CC1)N(C(=O)/C=C/c1ccccc1)c1ccccc1 (centres unmarked) [Compound 3-29] | –
1 | O=C(COc1ccc2c(c1)OCO2)N(c1ccccc1)C1CCCCC1 [Compound 3-44] | –
6.8 | O=C(CCc1ccc2c(c1)OCO2)N(c1ccccc1)c1ccccc1 [Compound 3-43] | –
0.7 | CCCCN(C(=O)/C=C/c1ccc2c(c1)OCO2)c1ccccc1 [Compound 3-9] | –
– | CC1(C)CC(=O)C2=C(C1)N1CCc3ccccc3C1CC21[S+]([O-])CCS1(=O)=O (centres unmarked) [Compound 1-8] | EC50 (human TRPM8 receptor; Table A, structure type 1): 9.8 µM
– | CC1CCC(C(C)C)C(C(=O)NCC(=O)O)C1 [N^α-(L-menthanecarbonyl)glycine] | cooling action [1]: very weak cooling action
– | CCNC(=O)C1CC(C)CCC1C(C)C (centres unmarked) [WS-3, menthane-3-carboxylic acid-N-ethylamide] | sensorial assessment of cooling fresh impression [2]: less powerful, less voluminous and less long-lasting; cooling action [1]: most strongly cooling active ingredients
5.5 | O=C(c1c(Cl)cccc1Cl)N(Cc1ccccc1)c1ccccn1 [Compound 3-49] | –
6.2 | CCN(C(=O)/C=C/c1ccc2c(c1)OCO2)c1ccccn1 [Compound 3-11] | –
1.1 | CCCN(C(=O)/C=C/c1ccc2c(c1)OCO2)c1ccccc1 [Compound 3-7] | –
4 | Cc1ccc(/C=C/C(=O)N(c2ccccc2)c2ccccc2)cc1 [Compound 3-34, 4-methylcinammic acid-N,N-diphenylamide] | –
1.7 | CCCN(C(=O)/C=C/c1ccc(OC)cc1)c1ccccc1 [Compound 3-21] | –
– | C[C@H]1OC(=O)C2=C1N1CCc3ccccc3C1CC21[S+]([O-])CCS1(=O)=O (some centres unmarked) [Compound 1-7] | EC50 (human TRPM8 receptor; Table A, structure type 1): 0.7 µM
– | O=C1CCCC2=C1C1(CC3c4ccccc4CCN23)SCCCS1 (centres unmarked) [Compound 1-4, 2,3,4,5,6,10b,11,12-octahydro-spiro[4b-azachrysene-12,2′-[1,3]dithian]-1-one] | EC50 (human TRPM8 receptor; Table A, structure type 1): 3.1 µM
0.8 | CCN(C(=O)/C=C/c1ccc2c(c1)OCO2)C1CCCCC1 [Compound 3-4] | –
– | CC1OC(=O)C2=C1N1CCc3ccccc3C1CC21SCCS1 (centres unmarked) [Compound 1-3, 5,6,10b,11-tetrahydro-3-methyl-spiro[12H-benzo[a]furo[3,4-f]quinolizin-12,2′-[1,3]dithiolan]-1(3H)one] | EC50 (human TRPM8 receptor; Table A, structure type 1): 0.7 µM
– | COc1cnc(-c2ccccn2)nc1N1CCOCC1 [Compound 2-4] | EC50 (human TRPM8 receptor; Table B, structure type 2): 1 µM
2.3 | O=C(/C=C/c1ccccc1)N(c1ccccn1)C1CCCCC1 [Compound 3-25, Cinammic acid-N-cyclohexyl-N-2-pyridylamide] | –
0.3 | Cc1ccc(/C=C/C(=O)N(c2ccccn2)C2CCCCC2)cc1 [Compound 3-32, (E)-N-cyclohexyl-N-pyridin-2-yl-3-p-tolyl-acrylamide] | –
0.6 | CC(C)N(C(=O)/C=C/c1ccc2c(c1)OCO2)c1ccccc1 [Compound 3-8] | –
– | CCc1cnc(-c2ccccn2)nc1NC(C)C [Compound 2-14, (5-ethyl-2-pyridin-2-yl-pyrimidin-4-yl)-isopropyl-amine] | EC50 (human TRPM8 receptor; Table B, structure type 2): 0.4 µM
– | COc1cnc(-c2ccccn2)nc1NC(C)C [Compound 2-15, Isopropyl-(5-methoxy-2-pyridin-2-yl-pyrimidin-4-yl)-ammonium citrate] | EC50 (human TRPM8 receptor; Table B, structure type 2): 0.8 µM
0.4 | Cc1ccccc1/C=C/C(=O)N(c1ccccn1)C1CCCCC1 [Compound 3-30] | –
